Earlier results in patent US20060229344A1, “Method of treating amyotrophic lateral sclerosis” (priority 2005, published 2006).

Tests used:
[1] = in vivo
[2] = in vivo; remark: listed apart in the source

absorption after oral administration: well absorbed
Compound: Cc1cc(CCCOc2c(C)cc(-c3noc(C(F)(F)F)n3)cc2C)on1 [VP 63843, 3-[3,5-dimethyl-4-[[3-(3-methyl-5-isoxazolyl)propyl]oxy]phenyl]-5-(trifluoromethyl)-1,2,4-oxadiazole]
crossing into the central nervous system and gray matter [1]: crosses readily into the central nervous system and into gray matter
side-effects [2]: few side-effects
tolerability [2]: well tolerated
toxicity [2]: little toxicity
